“And” between values parts separate entries of the source, which are not always exact repeats. Equal entries are not always repeated.
Legend:
Format in all cases: biochemical
HGFA [1] = biological target: T1, HGFA (Homo sapiens, UniProt Q04756); assay: Fluorescent kinetic enzyme inhibitor assay of HGFA; conditions: for Ki: Table 4.2, Boc-QLR-AMC substrate, read-out: HGFA Ki
T1 construct: His6 tag (N); seven amino acid spacer and seven amino acid TEV cleavage site (N); Honey Bee melittin signal peptide (N); made in house; host or cells: High 5 insect cells (baculovirus; virus raised in Sf9)
T1 sequence (Q04756 373-655): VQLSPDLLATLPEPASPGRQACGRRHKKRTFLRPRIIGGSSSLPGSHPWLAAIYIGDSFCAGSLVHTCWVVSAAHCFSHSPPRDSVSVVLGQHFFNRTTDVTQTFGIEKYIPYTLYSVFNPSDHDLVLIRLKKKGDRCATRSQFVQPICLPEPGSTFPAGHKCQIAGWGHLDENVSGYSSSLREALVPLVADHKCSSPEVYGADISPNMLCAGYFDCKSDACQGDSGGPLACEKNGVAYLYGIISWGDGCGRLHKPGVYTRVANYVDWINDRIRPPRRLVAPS
Method in brief: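 Recombinant His-tagged HGFA residues 373-655 from insect cells, with substrate at Km. Inhibitors in 11-point dilutions, 0-20 μM final, 2% DMSO, fluorescence (ex 380/em 460 nm) followed over time at room temperature. IC50 from four-parameter fit of mean velocity, average of three experiments.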

HGFA [2] = biological target: T1, HGFA; assay: Chromogenic kinetic enzyme inhibitor assay of HGFA; conditions: Table 4.1; chromogenic substrate Pefachrome FVIIa
From the text: This PCR product was cloned into the SfoI-HindIII sites of a modified pFastBac HT baculovirus expression vector (Addgene, Cambridge, Mass.). This vector contains a six amino His tag followed by a seven amino spacer and a seven amino acid TEV cleavage site placed immediately downstream of the Honey Bee melittin signal peptide. Using a modified Bac to Bac Expression System (Life Technologies, Carlsbad, Calif.), recombinant HGFA bacmids were obtained by transforming DH10Bac Escherichia coli cells. To obtain HGFA containing baculovirus, purified bacmids were transfected into Sf9 insect cells. After 5 days in culture at 27° C., media was harvested from transfected Sf9 cells. This media was used to prepare baculovirus infected insect cells (BIICs). These BIIICs were used to infect High 5 insect cells. Four days post infection, media was harvested and recombinant protein prepared as follows. Media was chilled to 4° C. and spun at 4000×g for 20 minutes (all subsequent steps were performed at 4° C. unless noted). […] Concentrated media was then buffer exchanged in two steps, five volumes of 50 mM Na-phosphate, 500 mM NaCl, pH 6.2, followed by five volumes of 50 mM Na-phosphate, 500 mM NaCl, pH 7.5. […] After mixing this slurry for 12 hours, nickel agarose beads were allowed to settle by gravity and then loaded into a column. Beads were washed with buffer (25 mM Na-phosphate, 500 mM NaCl, 25 mM imidazole, pH 8) and the bound protein eluted using (25 mM Na-phosphate, 500 mM NaCl, 250 mM imidazole, pH 8). Using a Amicon Ultra-4 Centrifugal filters (#UFC801008, Merck Millipore, Ltd., Tullagreen, Ireland), peak protein fractions were concentrated and run over a Superdex-200 10/300 GL column (GE Healthcare Life Sciences, Piscataway, N.J.) in 10 mM Tris, 200 mM NaCl, 0.2 mM EDTA, pH 8. HGFA containing fractions were pooled, concentrated, made 50% glycerol, and stored at minus 20° C. Protein was quantitated using a modified Lowry protein assay (#500-0006, Bio-Rad Laboratories, Hercules, Calif.).
Using Gen 5 2.00 software program (Biotek, Winnoski, Vt.), a four parameter curve fit was used to determine the inhibitor IC50s from a plot of the mean reaction velocity versus the inhibitor concentration. The IC50 values represent the average of three separate experimental determinations.

matriptase = biological target: T2, matriptase (Homo sapiens, UniProt Q9Y5Y6); assay: Fluorescent kinetic enzyme inhibitor assay of matriptase; conditions: for IC50: Table 4.1
T2 construct: Charles Craik, UCSF (obtained from another laboratory)
T2 sequence (Q9Y5Y6 615-855 limits assumed): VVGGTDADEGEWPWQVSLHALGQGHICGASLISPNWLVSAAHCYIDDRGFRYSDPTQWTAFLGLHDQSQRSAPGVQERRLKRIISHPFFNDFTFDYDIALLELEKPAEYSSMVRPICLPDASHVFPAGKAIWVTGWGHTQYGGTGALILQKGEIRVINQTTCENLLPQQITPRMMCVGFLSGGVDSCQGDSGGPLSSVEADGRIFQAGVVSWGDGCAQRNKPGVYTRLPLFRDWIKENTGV
Experimental: (§1) Inhibitors (11-pt serial dilutions, 0-20 μM final concentration in reaction) were serially diluted in DMSO (2% DMSO final concentration) and then mixed with either recombinant serine protease domain of HGFA [Z. Han, P. K. Harris, D. E. Jones, R. Chugani, T. Kim, M. Agarwal, W. Shen, S. A. Wildman, J. W. Janetka, Acs Med Chem Lett 2014, 5, 1219-1224], matriptase (Charles Craik, UCSF) or hepsin* (#4776-SE-010, R&D Systems, Minneapolis, Minn.) in black 384 well plates (Corning #3575. Corning, N.Y.). […] The final substrate concentrations for all assays were at the Km for the respective enzymes. Changes in fluorescence (excitation at 380 nm and emission at 460 nm) were measured at room temperature over time in a Biotek Synergy 2 plate reader (Winnoski, Vt.). Using GraphPad Prism version 6.04 software program, (GraphPad Software, San Diego, Calif., www.graphpad.com), a four parameter curve fit was used to determine the inhibitor IC50s from a plot of the mean reaction velocity versus the inhibitor concentration. The IC50 values represent the average of three separate experimental determinations.

hepsin = biological target: T3, hepsin (Homo sapiens, UniProt P05981); assay: Fluorescent kinetic enzyme inhibitor assay of hepsin; conditions: for IC50: Table 4.1; for Ki: Table 4.2, Boc-QAR-AMC substrate, read-out: Hepsin Ki
T3 construct: purchased R&D Systems 4776-SE-010
Experimental: as §1

T3 sequence (P05981 163-417 limits assumed): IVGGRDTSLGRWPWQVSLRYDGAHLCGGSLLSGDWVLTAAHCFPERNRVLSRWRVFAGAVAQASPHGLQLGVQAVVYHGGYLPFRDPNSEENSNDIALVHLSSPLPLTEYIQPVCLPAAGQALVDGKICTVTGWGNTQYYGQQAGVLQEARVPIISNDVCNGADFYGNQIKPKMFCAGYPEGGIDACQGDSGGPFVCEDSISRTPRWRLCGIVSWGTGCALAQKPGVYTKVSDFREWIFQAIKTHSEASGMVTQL
T3 sequence (P05981 45-162 partner limits assumed): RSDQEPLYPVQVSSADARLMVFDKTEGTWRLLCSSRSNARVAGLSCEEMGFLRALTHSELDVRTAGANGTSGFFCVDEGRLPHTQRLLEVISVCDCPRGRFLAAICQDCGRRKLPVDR

| SMILES | Ki (HGFA [1]) | IC50 (HGFA [2]) | also measured |
| --- | --- | --- | --- |
| CC(=O)N[C@@H](CC(C)C)C(=O)N[C@@H](CC(C)C)C(=O)N[C@@H](CCCNC(=N)N)C(=O)c1nccs1 [Ac-LLR-kt] | 253 nM | 1480 nM | – |
| CC(=O)N[C@@H](CCCCN)C(=O)N[C@@H](CCC(N)=O)C(=O)N[C@@H](CC(C)C)C(=O)N[C@H](CCCNC(=N)N)C(=O)c1nccs1 [Compound 5-1, Ac-KQLdR-kt] | – | 5530 nM | – |
| CC(=O)N[C@@H](CCCCN)C(=O)N[C@@H](Cc1c[nH]cn1)C(=O)N[C@@H](CC(C)C)C(=O)N[C@@H](CCCNC(=N)N)C(=O)c1nccs1 [Compound 5a, Ac-KHLR(SEQ ID NO: 2)-kt] | 96 nM | 650 nM | – |
| CC(=O)N[C@@H](CCCCN)C(=O)N[C@@H](Cc1c[nH]cn1)C(=O)N[C@@H](CC(C)C)C(=O)N[C@H](CCCNC(=N)N)C(=O)c1nccs1 [Compound 5a-1, Ac-KHLdR-kt] | – | 10900 nM | – |
| CC(=O)N[C@@H](Cc1c[nH]c2ccccc12)C(=O)N[C@@H](CCC(N)=O)C(=O)N[C@@H](CC(C)C)C(=O)N[C@@H](CCCNC(=N)N)C(=O)c1nccs1 [Compound 5b, Ac-WQLR(SEQ ID NO: 3)-kt] | 65 nM | 471 nM | IC50 (matriptase): 49 nM; IC50 (hepsin): 1 nM; Ki (hepsin): 0.21 nM |
| CC(=O)N[C@@H](Cc1c[nH]c2ccccc12)C(=O)N[C@@H](CCC(N)=O)C(=O)N[C@@H](CC(C)C)C(=O)N[C@H](CCCNC(=N)N)C(=O)c1nccs1 [Compound 5b-1, Ac-WQLdR-kt] | – | 7120 nM | – |
| CC(=O)N[C@@H](CCCCN)C(=O)N[C@@H](CCC(N)=O)C(=O)N[C@@H](Cc1ccccc1)C(=O)N[C@H](CCCNC(=N)N)C(=O)c1nccs1 [Compound 5c-1, Ac-KQFdR-kt] | – | 7820 nM | – |
| CC(=O)N[C@@H](CCCCN)C(=O)N[C@@H](Cc1ccccc1)C(=O)N[C@@H](CC(C)C)C(=O)N[C@@H](CCCNC(=N)N)C(=O)c1nccs1 [Compound 5d, Ac-KFLR(SEQ ID NO: 5)-kt] | 80 nM | 330 nM | selectivity among HGFA, matriptase and hepsin (HGFA [1]): HGFA selectivity over both hepsin and matriptase; IC50 (matriptase): 35 nM; Ki (matriptase; Table 4.2, Boc-QAR-AMC substrate): 15 nM; IC50 (hepsin): 22 nM; Ki (hepsin): 2.1 nM |
| CC(=O)N[C@@H](CCCNC(=N)N)C(=O)N[C@@H](CCC(N)=O)C(=O)N[C@@H](CC(C)C)C(=O)N[C@H](CCCNC(=N)N)C(=O)c1nccs1 [Compound 5e-1, Ac-RQLdR-kt] | – | 3120 nM | – |
| CC(=O)N[C@@H](CO)C(=O)N[C@@H](CCC(N)=O)C(=O)N[C@@H](CC(C)C)C(=O)N[C@@H](CCCNC(=N)N)C(=O)c1nccs1 [Compound 5f, Ac-SQLR(SEQ ID NO: 7)-kt] | 182 nM | 180 nM | – |
| CC(=O)N[C@@H](CO)C(=O)N[C@@H](CCCCN)C(=O)N[C@@H](CC(C)C)C(=O)N[C@H](CCCNC(=N)N)C(=O)c1nccs1 [Compound 6-1, Ac-SKLdR-kt] | – | 6310 nM | – |
| CC(=O)N[C@@H](CO)C(=O)N[C@@H](Cc1c[nH]cn1)C(=O)N[C@@H](CC(C)C)C(=O)N[C@@H](CCCNC(=N)N)C(=O)c1nccs1 [Compound 6a, Ac-SHLR(SEQ ID NO: 11)-kt] | 332 nM | 1800 nM | IC50 (matriptase): 560 nM; IC50 (hepsin): 5 nM |
| CC(=O)N[C@@H](CO)C(=O)N[C@@H](Cc1c[nH]cn1)C(=O)N[C@@H](CC(C)C)C(=O)N[C@H](CCCNC(=N)N)C(=O)c1nccs1 [Compound 6a-1, Ac-SHLdR-kt] | – | 21200 nM | – |
| CC(=O)N[C@@H](Cc1c[nH]c2ccccc12)C(=O)N[C@@H](CCCCN)C(=O)N[C@@H](CC(C)C)C(=O)N[C@@H](CCCNC(=N)N)C(=O)c1nccs1 [Compound 6b, Ac-WKLR(SEQ ID NO: 12)-kt] | 56 nM | 320 nM | IC50 (matriptase): 97 nM; IC50 (hepsin): 4 nM |
| CC(=O)N[C@@H](Cc1c[nH]c2ccccc12)C(=O)N[C@@H](CCCCN)C(=O)N[C@@H](CC(C)C)C(=O)N[C@H](CCCNC(=N)N)C(=O)c1nccs1 [Compound 6b-1, Ac-WKLdR-kt] | – | 6500 nM | – |
| CC(=O)N[C@@H](CO)C(=O)N[C@@H](CCCCN)C(=O)N[C@@H](Cc1ccccc1)C(=O)N[C@H](CCCNC(=N)N)C(=O)c1nccs1 [Compound 6c-1, Ac-SKFdR-kt] | – | 10800 nM | – |
| CC(=O)N[C@@H](CC(N)=O)C(=O)N[C@@H](CCCCN)C(=O)N[C@@H](CC(C)C)C(=O)N[C@@H](CCCNC(=N)N)C(=O)c1nccs1 [Compound 6d, Ac-NKLR(SEQ ID NO: 14)-kt] | 79 nM | 397 nM and 400 nM | Ki (hepsin): 1.41 nM |
| CC(=O)N[C@@H](CO)C(=O)N[C@H](CCCNC(=N)N)C(=O)N[C@@H](CC(C)C)C(=O)N[C@H](CCCNC(=N)N)C(=O)c1nccs1 [Compound 6e-3, Ac-SdRLdR-kt] | – | 11900 nM | – |
| CC(=O)N[C@H](C(=O)N[C@@H](CCCCN)C(=O)N[C@@H](CC(C)C)C(=O)N[C@@H](CCCNC(=N)N)C(=O)c1nccs1)[C@@H](C)O [Compound 6f, Ac-TKLR(SEQ ID NO: 16)-kt] | 103 nM | 567 nM | – |
| CC(=O)N[C@@H](CCCNC(=N)N)C(=O)N[C@@H](CCCCN)C(=O)N[C@@H](CC(C)C)C(=O)N[C@@H](CCCNC(=N)N)C(=O)c1nccs1 [Compound 6h, Ac-RKLR(SEQ ID NO: 18)-kt] | 17 nM | 370 nM | – |
| CC(C)C[C@H](NC(=O)[C@H](CCC(N)=O)NC(=O)[C@@H](N)CCCCN)C(=O)N[C@@H](CCCNC(=N)N)C(=O)c1nccs1 [H-KQLR(SEQ ID NO: 1)-Kt] | – | 440 nM | – |
| CC(C)C[C@H](NC(=O)[C@H](CCC(N)=O)NC(=O)[C@@H](N)CCCCN)C(=O)N[C@H](CCCNC(=N)N)C(=O)c1nccs1 [H-KQLdR-kt] | – | 11300 nM | – |
| CC(=O)N[C@@H](CC(C)C)C(=O)N[C@@H](CC(C)C)C(=O)N[C@H](C=O)CCCNC(=N)N [Leupeptin, reference compound] | 188 nM | 535 nM | fold selective for HGFA over matriptase (HGFA [1]): 3 fold; IC50 (matriptase): 1150 nM; fold more potent for hepsin versus HGFA (hepsin): 3 fold; IC50 (hepsin): 256 nM |
